This note sets out measurements from patent US7244751B2, “Histone deacetylase inhibitors of novel benzamide derivatives with potent differentiation and anti-proliferation activity” (Shenzhen Chipscreen Biosciences Ltd., priority 2003, dated 2007).

Where only a bound is given, the exact number is not on record here.

The subject of test [1] is U2OS, human osteocarcinoma. The test can be described thus: Growth inhibition by MTS method, U2OS. The test is classed as cell-based. The settings on record: 48 hours with compound, read-out: GI50 against U2OS. As for the experimental part:
(§1) Growth inhibition tests were carried out by MTS method. Approximately 72 hours before the viability assay, cells were seeded into 96-well plates at 5-10×10^3 cells/well (according to the growth rate of individual cell lines used). 24 hours later, the tested compounds at different concentrations were added, and the cells were cultured for 48 hours, then added 20 μl/well of CellTiter 96 AQueous One Solution Reagent containing tetrazolium compound (Promega) into each well. MTS was subsequently added to the culture medium. After incubation of the plates for 2 hours at about 37° C., the absorbance at 490 nm was recorded by a 96-well plate reader. Cell viability was calculated by Atreatment/Acontrol×100% (A represents the absorbance recorded at 490 nm). […] All of the compounds were dissolved in DMSO and were added to the culture at a 1:1000 dilution to give a final DMSO concentration of ≦0.1%. All samples were assayed in duplicate, and each experiment was repeated at least three times.
In general terms: Tetrazolium dyes change colour on reduction, which living cells bring about.

The subject of a further test is H292, human lung cancer. Put plainly: Growth inhibition by MTS method, H292. The format is cell-based. The settings on record: NCI-H292, 48 hours with compound, read-out: GI50 against H292. As for the experimental part: as §1
Test [2] relates to SK-OV-3, human ovary adenocarcinoma. Put plainly: Growth inhibition by MTS method, SK-OV-3. The format is cell-based. The settings on record: 48 hours with compound, read-out: GI50 against SK-OV-3. Here is the method: as §1
Test [3] concerns HepG2, human hepatoblastoma. The test can be described thus: Growth inhibition by MTS method, HepG2. The format is cell-based. To be noted: 48 hours with compound, read-out: GI50 against HepG2. As for the experimental part:
as §1

Test [4] has as its system SK-N-SH, human neuroblastoma. The test can be described thus: Growth inhibition by MTS method, SK-N-SH. The test is classed as cell-based. To be noted: 48 hours with compound, read-out: GI50 against SK-N-SH. Here is the method:
as §1

Test [5] relates to SGC-7901, human gastric adenocarcinoma. Put plainly: Growth inhibition by MTS method, SGC-7901. The test is classed as cell-based. To be noted: 48 hours with compound, read-out: GI50 against SGC-7901. As for the experimental part:
as §1

The test system of test [6] is HeLa, human cervical carcinoma. Put plainly: Growth inhibition by MTS method, HeLa. The test is classed as cell-based. To be noted: 48 hours with compound, read-out: GI50 against HeLa. As for the experimental part: as §1
Test [7] relates to PANC-1, human pancreatic ductal carcinoma. Put plainly: Growth inhibition by MTS method, PANC-1. The test is classed as cell-based. The settings on record: 48 hours with compound, read-out: GI50 against PANC-1. As for the experimental part:
as §1

In test [8] the test system is MCF-7, human breast adenocarcinoma. The test can be described thus: Growth inhibition by MTS method, MCF-7. The format is cell-based. The settings on record: MCF7, 48 hours with compound, read-out: GI50 against MCF-7. As for the experimental part: as §1
Test [9] relates to MDA-MB-231, human breast adenocarcinoma. Put plainly: Growth inhibition by MTS method, MDA-MB-231. The test is classed as cell-based. To be noted: 48 hours with compound, read-out: GI50 against 231. Here is the method: as §1
Test [10] relates to SMMC-7721, human hepatoma. The test can be described thus: Growth inhibition by MTS method, SMMC-7721. The format is cell-based. To be noted: SMMC-721, 48 hours with compound, read-out: GI50 against SMMC-721. Here is the method: as §1
Test [11] has as its system LNCaP, human prostate cancer. Put plainly: Growth inhibition by MTS method, LNCaP. The settings on record: 48 hours with compound, read-out: GI50 against LNCaP. The format is cell-based. Here is the method:
as §1

For test [12], the system named is Jurkat, human T cell leukemia. Put plainly: Growth inhibition by MTS method, Jurkat. The test is classed as cell-based. To be noted: 48 hours with compound, read-out: GI50 against Jurkat. As for the experimental part: as §1
For test [13], the system named is DU-145, human prostate cancer. The test can be described thus: Growth inhibition by MTS method, DU-145. The test is classed as cell-based. The settings on record: 48 hours with compound, read-out: GI50 against DU-145. As for the experimental part: as §1
Test [14] has as its system HL-60, human myloid leukemia. The test can be described thus: Growth inhibition by MTS method, HL-60. The format is cell-based. The settings on record: 48 hours with compound, read-out: GI50 against HL-60. Here is the method: as §1
For the next test, the system named is 28SC, human macrophage. The test can be described thus: Growth inhibition by MTS method, 28SC. The test is classed as cell-based. The settings on record: 48 hours with compound, read-out: GI50 against 28SC. As for the experimental part: as §1
Test [15] relates to Raji, human Burkitts Lymphoma. Put plainly: Growth inhibition by MTS method, Raji. The test is classed as cell-based. To be noted: 48 hours with compound, read-out: GI50 against Raji. Here is the method:
as §1

The subject of test [16] is 293, human embryonic kidney. The test can be described thus: Growth inhibition by MTS method, 293. The test is classed as cell-based. The settings on record: 48 hours with compound, read-out: GI50 against 293. As for the experimental part:
as §1

The subject of test [17] is HDAC (extract from HeLa cells containing HDAC activity). Put plainly: HDAC colorimetric activity assay kit (BIOMOL), HeLa cell extract. The test is classed as biochemical, human. Here is the method:
Briefly, the tested compounds at different concentrations were added to 96-well plates, then mixed with extract from HeLa cells containing HDAC activity provided by the manufacturer. HDAC reactions were initiated by adding substrate. 10 minutes later, the reactions were stopped by addition of Color De Lys Developer. Microplates were read in a plate reader at 405 nm. Inhibition of HDAC activity was calculated following the instructions.

For the compound `Nc1ccccc1NC(=O)c1ccc(CNC(=O)OCc2cccnc2)cc1` [MS-275, N-(2-aminophenyl)-4-[N-(pyridin-3-ylmethoxycarbonyl)aminomethyl]benzamide, reference compound], the GI50 (commonly the concentration that inhibits growth by half) in [1] is 1 µM; in the test with H292, human lung cancer, 16 µM; in test [2], 50 µM; in test [3], 3.2 µM; in [4] it was 50 µM; in test [5], 50 µM. Further, the GI50 in test [6] was found to be 25 µM; in [7] it was 5 µM; in test [8], 6.3 µM; in [9], 5 µM; in [10] it was 20 µM; in [11], 2.5 µM. Moreover, the GI50 in [12] came out at 1.6 µM; in test [13], 13 µM; in test [14] it was 0.32 µM; in the test with 28SC, human macrophage, 4 µM; in test [15] it was 6.3 µM; in test [16], 16 µM.

On to `Nc1ccccc1NC(=O)c1ccc(CNc2ccc(F)cc2)cc1` [CS02100019, N-(2-aminophenyl)-4-[N-(4-fluorophenyl)aminomethyl]benzamide], for which the GI50 is 2.5 µM in [1]; 50 µM with H292, human lung cancer; 50 µM in test [2]; 3.2 µM in test [3]; 50 µM in test [4]; 50 µM in test [5]. For the same compound, the GI50 in test [6] came out at 50 µM; in [7], 5 µM; in test [8], 5 µM; in test [9], 7.9 µM; in [10], 50 µM; in test [11], 10 µM. Besides, the GI50 in test [12] was determined as 1 µM; in test [13] it was 50 µM; in [14], 0.5 µM; in the test with 28SC, human macrophage, 2 µM; in test [15], 2 µM; in test [16] it was 25 µM. Further, the IC50 (usually the concentration needed to halve the response being measured) in [17] (HDAC activity, HeLa extract) is over 50 µM. Also, the “% of inhibition of HDAC activity” value in test [17] (concentration 1 μM) stood at 11.3%; in [17] (concentration 5 μM), 24.9%; in test [17] (concentration 10 μM), 28.4%; in [17] (concentration 50 μM), 29.8%.

Consider `Nc1cc(F)ccc1NC(=O)c1ccc(CNC(=O)/C=C/c2cccnc2)cc1` [CS02100055, N-(2-amino-4-fluorophenyl)-4-[N-(Pyridin-3-ylacryloyl)aminomethyl]benzamide], for which the GI50 in [1] is 2 µM; in the test with H292, human lung cancer it was 50 µM; in [2], 50 µM; in test [3], 4 µM; in test [4] it was 50 µM; in test [5], 50 µM. Further, the GI50 stood at 40 µM in test [6]; 6.3 µM in test [7]; 5 µM in [8]; 7.9 µM in [9]; 16 µM in test [10]; 4 µM in test [11]. Further, the GI50 in [12] stood at 1.5 µM; in test [13] it was 25 µM; in test [14], 0.4 µM; in the test on 28SC, human macrophage, 5.8 µM; in test [15] it was 4 µM; in test [16] it was 50 µM.
